For five compounds, IC50 and Activity results are on record in ChEMBL document CHEMBL4340575, “Design, synthesis and biological evaluation of novel aryl-acrylic derivatives as novel indoleamine-2,3-dioxygenase 1 (IDO1) inhibitors” (Bioorg Med Chem, 2019).

Data set [1] concerns the target T1, Indoleamine 2,3-dioxygenase 1 (Homo sapiens, UniProt P14902). Nature of the data set: Inhibition of IDO1 in interferon-gamma-induced human HeLa cells using L-tryptophan substrate incubated for 24 hrs. It counts as cell-based.
The target in data set [2] is T1, Indoleamine 2,3-dioxygenase 1. Put plainly: Inhibition of purified recombinant human IDO1 using L-tryptophan substrate incubated fro 30 mins.
For data set [3], the system named is HeLa. Put plainly: Toxicity in human HeLa cells assessed as reduction in cell viability. It counts as cell-based.

T1 sequence (P14902 whole entry): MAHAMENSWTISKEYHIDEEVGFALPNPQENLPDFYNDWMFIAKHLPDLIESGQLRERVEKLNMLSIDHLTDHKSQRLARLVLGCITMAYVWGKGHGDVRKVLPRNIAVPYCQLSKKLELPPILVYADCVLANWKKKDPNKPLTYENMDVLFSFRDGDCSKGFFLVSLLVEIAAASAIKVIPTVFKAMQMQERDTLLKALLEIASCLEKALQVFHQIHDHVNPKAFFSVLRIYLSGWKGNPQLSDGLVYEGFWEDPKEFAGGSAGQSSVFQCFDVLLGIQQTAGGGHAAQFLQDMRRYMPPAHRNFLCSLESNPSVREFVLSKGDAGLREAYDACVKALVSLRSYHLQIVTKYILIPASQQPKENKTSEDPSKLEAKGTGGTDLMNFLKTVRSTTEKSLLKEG

One may read the IC50 as the midpoint of a concentration-inhibition curve. Consider `C/C(=C\C(=O)O)c1ccc(N(CC(C)C)CC(C)C)c(NC(=O)N/N=C/c2ccccc2F)c1`, for which the IC50 is 1.95 µM in data set [1] and 10.1 µM in data set [2]. Besides, in data set [3], the Activity entry is “Non-Toxic”.

Consider `C/C(=C\C(=O)O)c1ccc(N2CCOCC2)c(-n2cc(CNc3ccc(F)cc3)nn2)c1`, for which the values for the IC50 in data set [1] and in data set [2] were 20 µM and 58.3 µM, respectively.

For `CCCCN(CCCC)c1ccc(/C(C)=C/C(=O)O)cc1NC(=O)N/N=C/c1ccccc1C(F)(F)F`, the half-inhibitory concentration (IC50) in data set [1] was 2.83 µM; in data set [2], 12.3 µM. The Activity entry in data set [3] is “Non-Toxic”.

`CCCCN(CCCC)c1ccc(/C(C)=C/C(=O)O)cc1NC(=O)N/N=C/c1ccc(Cl)cc1`: the concentration for half-maximal inhibition (IC50) in data set [1] is 3.87 µM; in data set [2], 14.4 µM. Also, the Activity result in data set [3] is given as “Non-Toxic”.

For `C/C(=C\C(=O)O)c1ccc(N(CC(C)C)CC(C)C)c(NC(=O)N/N=C/c2ccc(Cl)cc2)c1`, the IC50 in data set [1] turned out to be 1.02 µM; in data set [2] it was 10.2 µM. In addition, the Activity result in data set [3] is reported as “Non-Toxic”.
